Measured values reported in PubChem BioAssay (NCI).
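Growth conditions: 96-well plates. Treatment: test compound, 48 hours, 5 concentrations. Analysis: linear interpolation between bracketing concentrations; unreached endpoints set to highest concentration. GI50 is the concentration that inhibits growth by half. TGI: concentration producing complete growth inhibition.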

How the values were obtained:
Assay in all cases: NCI tumour cell line growth inhibition, 48 h
HOP-62 NSCLC = tested on: HOP-62 NSCLC
ACHN renal = tested on: ACHN renal
EKVX NSCLC = tested on: EKVX NSCLC
SK-MEL-5 melanoma = tested on: SK-MEL-5 melanoma
OVCAR-8 ovarian = tested on: OVCAR-8 ovarian
SW-620 colon = tested on: SW-620 colon
RXF 393 renal = tested on: RXF 393 renal
NCI-H23 lung = tested on: NCI-H23 lung
SNB-75 CNS = tested on: SNB-75 CNS
SNB-19 CNS = tested on: SNB-19 CNS
OVCAR-3 ovarian = tested on: OVCAR-3 ovarian
UACC-257 melanoma = tested on: UACC-257 melanoma
NCI/ADR-RES ovarian = tested on: NCI/ADR-RES ovarian
SK-OV-3 ovarian = tested on: SK-OV-3 ovarian
IGROV1 ovarian = tested on: IGROV1 ovarian
TK-10 renal = tested on: TK-10 renal
MALME-3M melanoma = tested on: MALME-3M melanoma
SK-MEL-28 melanoma = tested on: SK-MEL-28 melanoma
SN12C renal = tested on: SN12C renal
HCT-116 colon = tested on: HCT-116 colon
MDA-MB-468 breast = tested on: MDA-MB-468 breast
M14 melanoma = tested on: M14 melanoma
K-562 leukemia = tested on: K-562 leukemia
UACC-62 melanoma = tested on: UACC-62 melanoma
SF-295 CNS = tested on: SF-295 CNS

## CC1=C(C=O)C2=C(C)C3(CC3)[C@@](C)(O)C(=O)C2=C1
HOP-62 NSCLC
  GI50: 216 nM
  TGI: 518 nM
ACHN renal
  GI50: 229 nM
  TGI: 543 nM
EKVX NSCLC
  GI50: 244 nM
  TGI: 737 nM
SK-MEL-5 melanoma
  GI50: 187 nM
  TGI: 381 nM
OVCAR-8 ovarian
  GI50: 214 nM
  TGI: 562 nM
SW-620 colon
  GI50: 255 nM
  TGI: 694 nM
RXF 393 renal
  GI50: 147 nM
  TGI: 293 nM
NCI-H23 lung
  GI50: 180 nM
  TGI: 361 nM
SNB-75 CNS
  GI50: 176 nM
  TGI: 547 nM
SNB-19 CNS
  GI50: 342 nM
  TGI: 1340 nM
OVCAR-3 ovarian
  GI50: 250 nM
  TGI: 618 nM
UACC-257 melanoma
  GI50: 188 nM
  TGI: 418 nM
NCI/ADR-RES ovarian
  GI50: 321 nM
  TGI: 1310 nM
SK-OV-3 ovarian
  GI50: 678 nM
  TGI: 1800 nM
IGROV1 ovarian
  GI50: 236 nM
  TGI: 538 nM
TK-10 renal
  GI50: 519 nM
  TGI: 2320 nM
MALME-3M melanoma
  GI50: 180 nM
  TGI: 353 nM
SK-MEL-28 melanoma
  GI50: 284 nM
  TGI: 781 nM
SN12C renal
  GI50: 221 nM
  TGI: 523 nM
HCT-116 colon
  GI50: 161 nM
  TGI: 317 nM
MDA-MB-468 breast
  GI50: 159 nM
  TGI: 344 nM
M14 melanoma
  GI50: 212 nM
  TGI: 463 nM
K-562 leukemia
  GI50: 243 nM
  TGI: 765 nM
UACC-62 melanoma
  GI50: 179 nM
  TGI: 372 nM
SF-295 CNS
  GI50: 194 nM
  TGI: 387 nM
